The text below walks through data of publication PMC12066708 (Communications Biology, 2025).

The experiment concerns the target T1, Kell (Homo sapiens, UniProt P23276).
T1 sequence (P23276 1-732): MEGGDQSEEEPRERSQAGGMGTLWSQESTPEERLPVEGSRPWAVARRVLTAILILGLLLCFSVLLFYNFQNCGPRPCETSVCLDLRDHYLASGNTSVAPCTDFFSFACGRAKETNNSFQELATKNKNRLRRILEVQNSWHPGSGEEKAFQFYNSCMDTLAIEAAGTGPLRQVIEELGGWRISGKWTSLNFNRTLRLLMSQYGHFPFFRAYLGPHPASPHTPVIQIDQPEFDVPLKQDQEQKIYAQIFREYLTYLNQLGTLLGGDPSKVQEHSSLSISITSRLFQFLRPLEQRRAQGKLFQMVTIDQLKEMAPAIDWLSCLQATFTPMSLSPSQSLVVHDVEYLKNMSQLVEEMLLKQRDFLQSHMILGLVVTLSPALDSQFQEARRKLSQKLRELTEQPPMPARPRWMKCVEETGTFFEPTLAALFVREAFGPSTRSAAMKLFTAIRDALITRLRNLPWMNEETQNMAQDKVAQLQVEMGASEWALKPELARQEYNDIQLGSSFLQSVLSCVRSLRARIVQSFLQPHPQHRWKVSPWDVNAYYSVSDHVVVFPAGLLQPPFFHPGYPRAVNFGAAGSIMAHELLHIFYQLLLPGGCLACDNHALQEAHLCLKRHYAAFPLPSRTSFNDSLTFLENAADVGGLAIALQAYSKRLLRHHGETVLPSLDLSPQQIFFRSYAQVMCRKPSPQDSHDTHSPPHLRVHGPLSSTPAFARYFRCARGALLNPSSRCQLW
Put plainly: microscale thermophoresis. The class given is binding.

For `O=C(O)CNC(=O)C(CS)Cc1ccccc1` (stereo not shown) [thiorphan], the Kd amounted to 33 µM.
